Patent US20230131899A1, “INHIBITORS OF MICROBIALLY INDUCED AMYLOID” (Axial Therapeutics, Inc., priority 2020, published 2023)
Like-named read-outs stand apart in the source and are kept apart here.

Molecular target: T1, human α-synuclein (Homo sapiens, UniProt P37840)
T1 construct: the full-length gene for untagged human α-synuclein was inserted; made in house; host or cells: E. coli BL21(DE3), plasmid derived from pT7 or pET11a
Experiment: Cell-free Thioflavin T assay of α-synuclein aggregation (αSyn ThT Assay)
Type: biochemical
Conditions: αSyn 50 μM
Outline: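 Inhibition is reported as 100% minus background-corrected ThT signal relative to vehicle wells, taken at 36, 47, 48 or 72 h or the last read. Reactions held 50 μM recombinant α-synuclein, 20-100 μM compound, 20-40 μM ThT and 1% DMSO. Incubation was at 37° C., shaken, with a glass bead.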

[1] = mean % inhibition of αSyn aggregation relative to DMSO control, compounds at 100 μM, read-out: αSyn ThT Assay % Inhibition
[2] = compounds at 100 μM, class symbol, read-out: αSyn ThT Assay % Inhibition (activity range)
[3] = class symbol, compounds 100 μM, read-out: αSyn ThT Assay % inhibition, activity range
[4] = mean percent inhibition relative to DMSO control, compounds 100 μM, read-out: αSyn ThT Assay % inhibition

Row | SMILES | inhibition at 100 µM [1] [%] | inhibition at 100 µM [2] [%] | inhibition at 100 µM [3] [%] | inhibition at 100 µM [4] [%]
1 | O=C(O)c1c(CCc2ccccc2)sc2c(-c3cccc(C(F)(F)F)c3)c(Cc3cccc4ccccc34)cc(=O)n12 [Compound 062, 7-(naphthalen-1-ylmethyl)-5-oxo-2-phenethyl-8-(3-(trifluoromethyl)phenyl)-5H-thiazolo[3,2-a]pyridine-3-carboxylic acid] | 87 | > 60 | – | –
2 | CCCCN1CC(C(=O)O)n2c1c(-c1cccc(C(F)(F)F)c1)c(Cc1cccc3ccccc13)c(Cl)c2=O (stereo not shown) [Compound 163, 1-butyl-6-chloro-7-(naphthalen-1-ylmethyl)-5-oxo-8-(3-(trifluoromethyl)phenyl)-1,2,3,5-tetrahydroimidazo[1,2-a]pyridine-3-carboxylic acid] | – | – | 31 to 60 | 47
3 | CC(C)(C)c1ccc(Cc2c(-c3cccc(C(F)(F)F)c3)c3n(c(=O)c2Cl)C(C(=O)O)CN3Cc2ccccc2)cc1 (stereo not shown) [Compound 216, 1-benzyl-7-(4-(tert-butyl)benzyl)-6-chloro-5-oxo-8-(3-(trifluoromethyl)phenyl)-1,2,3,5-tetrahydroimidazo[1,2-a]pyridine-3-carboxylic acid] | – | – | 31 to 60 | 46
4 | O=C(O)C1CN(CC2CCCC2)c2c(-c3cccc(C(F)(F)F)c3)c(Cc3cccc4ccccc34)c(Cl)c(=O)n21 (stereo not shown) [Compound 167, 6-chloro-1-(cyclopentylmethyl)-7-(naphthalen-1-ylmethyl)-5-oxo-8-(3-(trifluoromethyl)phenyl)-1,2,3,5-tetrahydroimidazo[1,2-a]pyridine-3-carboxylic acid] | – | – | 31 to 60 | 45
5 | O=C(O)C1CN(CCCO)c2c(-c3cccc(C(F)(F)F)c3)c(Cc3cccc4ccccc34)c(Cl)c(=O)n21 (stereo not shown) [Compound 197, 6-chloro-1-(3-hydroxypropyl)-7-(naphthalen-1-ylmethyl)-5-oxo-8-(3-(trifluoromethyl)phenyl)-1,2,3,5-tetrahydroimidazo[1,2-a]pyridine-3-carboxylic acid] | – | – | 31 to 60 | 39
6 | CNC(=O)C1CN(C)S(=O)(=O)c2c(-c3cccc(C(F)(F)F)c3)c(Cc3cccc4ccccc34)cc(=O)n21 (stereo not shown) [Compound 031, N,2-dimethyl-8-(naphthalen-1-ylmethyl)-6-oxo-9-(3-(trifluoromethyl)phenyl)-3,4-dihydro-2H,6H-pyrido[1,2-e][1,2,5]thiadiazine-4-carboxamide 1,1-dioxide] | 18 | 11 to 30 | – | –
7 | Cn1c(=O)c2c(ncn2CCCCCN2CC(C(=O)O)n3c(c(-c4cccc(C(F)(F)F)c4)c(Cc4cccc5ccccc45)cc3=O)S2(=O)=O)n(C)c1=O (stereo not shown) [Compound 034, 2-(5-(1,3-dimethyl-2,6-dioxo-1,2,3,6-tetrahydro-7H-purin-7-yl)pentyl)-8-(naphthalen-1-ylmethyl)-6-oxo-9-(3-(trifluoromethyl)phenyl)-3,4-dihydro-2H,6H-pyrido[1,2-e][1,2,5]thiadiazine-4-carboxylic acid 1,1-dioxide] | 5 | -10 to 10 | – | –
8 | O=C(O)C1CSc2c(-c3cccc(C(F)(F)F)c3)c(C(F)(F)c3cccc4ccccc34)cc(=O)n21 (stereo not shown) [Compound 073, 7-(difluoro(naphthalen-1-yl)methyl)-5-oxo-8-(3-(trifluoromethyl)phenyl)-2,3-dihydro-5H-thiazolo[3,2-a]pyridine-3-carboxylic acid] | 76 | > 60 | – | –
9 | O=C(O)C1CN(Cc2ccccc2)c2c(-c3cccc(C(F)(F)F)c3)c(Cc3cccc4ccccc34)c(Br)c(=O)n21 (stereo not shown) [Compound 003, 1-benzyl-6-bromo-7-(naphthalen-1-ylmethyl)-5-oxo-8-(3-(trifluoromethyl)phenyl)-1,2,3,5-tetrahydroimidazo[1,2-a]pyridine-3-carboxylic acid] | – | – | > 60 | 76
10 | O=C(O)C1CN(Cc2ccc(-c3ccccc3)cc2)c2c(-c3cccc(C(F)(F)F)c3)c(Cc3cccc4ccccc34)c(Cl)c(=O)n21 (stereo not shown) [Compound 202, 1-([1,1′-biphenyl]-4-ylmethyl)-6-chloro-7-(naphthalen-1-ylmethyl)-5-oxo-8-(3-(trifluoromethyl)phenyl)-1,2,3,5-tetrahydroimidazo[1,2-a]pyridine-3-carboxylic acid] | – | – | 31 to 60 | 54
11 | CCCN1CC(C(=O)O)n2c(c(-c3cccc(C(F)(F)F)c3)c(Cc3cccc4ccccc34)c(C(N)=O)c2=O)S1(=O)=O (stereo not shown) [Compound 172, 7-carbamoyl-8-(naphthalen-1-ylmethyl)-6-oxo-2-propyl-9-(3-(trifluoromethyl)phenyl)-3,4-dihydro-2H,6H-pyrido[1,2-e][1,2,5]thiadiazine-4-carboxylic acid 1,1-dioxide] | – | – | > 60 | 98
12 | O=C(O)C1CN(CCCO)S(=O)(=O)c2c(-c3cccc(C(F)(F)F)c3)c(Cc3cccc4ccccc34)cc(=O)n21 (stereo not shown) [Compound 056, 2-(3-hydroxypropyl)-8-(naphthalen-1-ylmethyl)-6-oxo-9-(3-(trifluoromethyl)phenyl)-3,4-dihydro-2H,6H-pyrido[1,2-e][1,2,5]thiadiazine-4-carboxylic acid 1,1-dioxide] | 59 | 31 to 60 | – | –
13 | O=C(O)C1COc2c(-c3cccc(C(F)(F)F)c3)c(Cc3cccc4ccccc34)cc(=O)n21 (stereo not shown) [Compound 064, 7-(naphthalen-1-ylmethyl)-5-oxo-8-(3-(trifluoromethyl)phenyl)-2,3-dihydro-5H-oxazolo[3,2-a]pyridine-3-carboxylic acid] | 37 | 31 to 60 | – | –
14 | O=C(O)C1CN(Cc2cccc3ccccc23)c2c(-c3cccc(C(F)(F)F)c3)c(Cc3cccc4ccccc34)c(Cl)c(=O)n21 (stereo not shown) [Compound 200, 6-chloro-1,7-bis(naphthalen-1-ylmethyl)-5-oxo-8-(3-(trifluoromethyl)phenyl)-1,2,3,5-tetrahydroimidazo[1,2-a]pyridine-3-carboxylic acid] | – | – | > 60 | 84
15 | CNC(=O)CCCCN1CC(C(=O)O)n2c(c(-c3cccc(C(F)(F)F)c3)c(Cc3cccc4ccccc34)cc2=O)S1(=O)=O (stereo not shown) [Compound 038, 2-(5-(methylamino)-5-oxopentyl)-8-(naphthalen-1-ylmethyl)-6-oxo-9-(3-(trifluoromethyl)phenyl)-3,4-dihydro-2H,6H-pyrido[1,2-e][1,2,5]thiadiazine-4-carboxylic acid 1,1-dioxide] | 42 | 31 to 60 | – | –
16 | O=C(O)C1CN(Cc2ccc(CO)cc2)c2c(-c3cccc(C(F)(F)F)c3)c(Cc3cccc4ccccc34)c(Cl)c(=O)n21 (stereo not shown) [Compound 170, 6-chloro-1-(4-(hydroxymethyl)benzyl)-7-(naphthalen-1-ylmethyl)-5-oxo-8-(3-(trifluoromethyl)phenyl)-1,2,3,5-tetrahydroimidazo[1,2-a]pyridine-3-carboxylic acid] | – | – | 11 to 30 | 30
17 | CN1CC(C(=O)O)n2c(c(-c3cccc(C(F)(F)F)c3)c(Cc3cccc4ccccc34)c(C(=O)NC(C)(C)C)c2=O)S1(=O)=O (stereo not shown) [Compound 158, 7-(tert-butylcarbamoyl)-2-methyl-8-(naphthalen-1-ylmethyl)-6-oxo-9-(3-(trifluoromethyl)phenyl)-3,4-dihydro-2H,6H-pyrido[1,2-e][1,2,5]thiadiazine-4-carboxylic acid 1,1-dioxide] | – | – | > 60 | 79
